Measured values from the supplement of paper PMC10733146.

Assays:
Assay in all cases: viability relative to DMSO control (fraction); higher = less drug effect (more viable cells)
Settings in all cases: 48 h
[1] = system: primary ALL patient cells (S088)
Outline: (§1)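 The cells were primary mononuclear tumour cells, either fresh or cryopreserved, isolated by Ficoll from blood or bone marrow or derived from processed lymph node. Each well of a 384-well plate received 4 × 10^4 cells onto compounds pre-plated at five concentrations, with one well per concentration. The medium was RPMI-1640 with penicillin/streptomycin, L-glutamine and human serum, and plates stood at 37 °C and 5% CO2 for 48 h. Viability is reported as CellTiter-Glo luminescence relative to the median of 16 inner DMSO wells.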

[2] = system: primary AML patient cells (S006)
Outline: as §1

[3] = system: primary AML patient cells (S009)
Outline: as §1

[4] = system: primary AML patient cells (S012)
Outline: as §1

[5] = system: primary AML patient cells (S017)
Outline: as §1

[6] = system: primary AML patient cells (S056)
Outline: as §1

[7] = system: primary AML patient cells (S060)
Outline: as §1

[8] = system: primary AML patient cells (S071)
Outline: as §1

[9] = system: primary AML patient cells (S072)
Outline: as §1

[10] = system: primary AML patient cells (S079)
Outline: as §1

[11] = system: primary AML patient cells (S085)
Outline: as §1

[12] = system: primary B-PLL patient cells (S016)
Outline: as §1

[13] = system: primary BL patient cells (S005)
Outline: as §1

[14] = system: primary CLL patient cells (S031)
Outline: as §1

[15] = system: primary CLL patient cells (S043)
Outline: as §1

[16] = system: primary DLBCL patient cells (S082)
Outline: as §1

[17] = system: primary FL patient cells (S087)
Outline: as §1

[18] = system: primary MCL patient cells (S041)
Outline: as §1

[19] = system: primary MCL patient cells (S053)
Outline: as §1

[20] = system: primary MCL patient cells (S063)
Outline: as §1

## COc1ccc(C2=N[C@@H](c3ccc(Cl)cc3)[C@@H](c3ccc(Cl)cc3)N2C(=O)N2CCNC(=O)C2)c(OC(C)C)c1 [Nutlin-3a]
[1]; 0.032 µM
  viability: 0.954
[1]; 0.16 µM
  viability: 0.854
[1]; 0.8 µM
  viability: 0.795
[1]; 4 µM
  viability: 0.355
[1]; 20 µM
  viability: 0.133
[2]; 0.032 µM
  viability: 1.01
[2]; 0.16 µM
  viability: 0.917
[2]; 0.8 µM
  viability: 0.694
[2]; 4 µM
  viability: 0.136
[2]; 20 µM
  viability: 0.0568
[3]; 0.032 µM
  viability: 0.875
[3]; 0.16 µM
  viability: 0.89
[3]; 0.8 µM
  viability: 0.744
[3]; 4 µM
  viability: 0.621
[3]; 20 µM
  viability: 0.493
[4]; 0.032 µM
  viability: 0.945
[4]; 0.16 µM
  viability: 0.946
[4]; 0.8 µM
  viability: 1.03
[4]; 4 µM
  viability: 1.01
[4]; 20 µM
  viability: 0.883
[5]; 0.032 µM
  viability: 1.05
[5]; 0.16 µM
  viability: 0.979
[5]; 0.8 µM
  viability: 1.03
[5]; 4 µM
  viability: 1.03
[5]; 20 µM
  viability: 1.08
[6]; 0.032 µM
  viability: 1.1
[6]; 0.16 µM
  viability: 1.07
[6]; 0.8 µM
  viability: 0.706
[6]; 4 µM
  viability: 0.425
[6]; 20 µM
  viability: 0.45
[7]; 0.032 µM
  viability: 1.02
[7]; 0.16 µM
  viability: 0.99
[7]; 0.8 µM
  viability: 1.03
[7]; 4 µM
  viability: 1.01
[7]; 20 µM
  viability: 0.974
[8]; 0.032 µM
  viability: 0.982
[8]; 0.16 µM
  viability: 0.78
[8]; 0.8 µM
  viability: 0.342
[8]; 4 µM
  viability: 0.117
[8]; 20 µM
  viability: 0.0641
[9]; 0.032 µM
  viability: 1.04
[9]; 0.16 µM
  viability: 0.956
[9]; 0.8 µM
  viability: 0.875
[9]; 4 µM
  viability: 0.78
[9]; 20 µM
  viability: 0.693
[10]; 0.032 µM
  viability: 1.02
[10]; 0.16 µM
  viability: 1.01
[10]; 0.8 µM
  viability: 0.972
[10]; 4 µM
  viability: 0.868
[10]; 20 µM
  viability: 0.61
[11]; 0.032 µM
  viability: 1.06
[11]; 0.16 µM
  viability: 1.31
[11]; 0.8 µM
  viability: 0.877
[11]; 4 µM
  viability: 0.509
[11]; 20 µM
  viability: 0.503
[12]; 0.032 µM
  viability: 1.06
[12]; 0.16 µM
  viability: 0.946
[12]; 0.8 µM
  viability: 1.02
[12]; 4 µM
  viability: 0.733
[12]; 20 µM
  viability: 0.101
[13]; 0.032 µM
  viability: 0.962
[13]; 0.16 µM
  viability: 0.887
[13]; 0.8 µM
  viability: 1.01
[13]; 4 µM
  viability: 0.91
[13]; 20 µM
  viability: 0.827
[14]; 0.032 µM
  viability: 0.869
[14]; 0.16 µM
  viability: 0.929
[14]; 0.8 µM
  viability: 0.8
[14]; 4 µM
  viability: 0.451
[14]; 20 µM
  viability: 0.089
[15]; 0.032 µM
  viability: 1.05
[15]; 0.16 µM
  viability: 1.01
[15]; 0.8 µM
  viability: 1.04
[15]; 4 µM
  viability: 0.894
[15]; 20 µM
  viability: 0.322
[16]; 0.032 µM
  viability: 1.07
[16]; 0.16 µM
  viability: 1.02
[16]; 0.8 µM
  viability: 1.1
[16]; 4 µM
  viability: 1.04
[16]; 20 µM
  viability: 1.12
[17]; 0.032 µM
  viability: 0.984
[17]; 0.16 µM
  viability: 0.964
[17]; 0.8 µM
  viability: 0.931
[17]; 4 µM
  viability: 0.816
[17]; 20 µM
  viability: 0.675
[18]; 0.032 µM
  viability: 0.988
[18]; 0.16 µM
  viability: 0.976
[18]; 0.8 µM
  viability: 0.921
[18]; 4 µM
  viability: 0.717
[18]; 20 µM
  viability: 0.34
[19]; 0.032 µM
  viability: 1.01
[19]; 0.16 µM
  viability: 0.896
[19]; 0.8 µM
  viability: 0.738
[19]; 4 µM
  viability: 0.433
[19]; 20 µM
  viability: 0.282
[20]; 0.032 µM
  viability: 0.998
[20]; 0.16 µM
  viability: 0.985
[20]; 0.8 µM
  viability: 0.984
[20]; 4 µM
  viability: 0.608
[20]; 20 µM
  viability: 0.215
